Test: logP determination by HPLC on a reversed-phase column (C 18), EEC Directive 79/831 Annex V.A8
Format: physicochemical
Method: The stated logP values were determined in accordance with EEC Directive 79/831 Annex V.A8 by HPLC (high performance liquid chromatography) on a reversed-phase column (C 18). Temperature: 43° C.

[1] = method marker [a] (footnote not shown), isomer A / isomer B / isomer mixture as noted in the cell
[2] = method marker [b], isomer A / isomer B / isomer mixture as noted in the cell
[3] = [b] LC-MS, acidic range, pH 2.7, 0.1% aqueous formic acid and acetonitrile
[4] = [c] LC-MS, neutral range, pH 7.8, 0.001 molar aqueous ammonium bicarbonate solution and acetonitrile
[5] = [a] acidic range, pH 2.3, 0.1% aqueous phosphoric acid and acetonitrile

CC(=NOCCON=C(C)c1cccc(C)n1)c1cccc(C)n1 (mixture of isomers) [Compound 13]
logP [1]: 2.22^[a]

CC(=NOCCCON=C(C)c1nc(C)cs1)c1cccc(C)n1 (mixture of isomers) [Compound 16]
logP [1]: 3.35^[a]
logP (method marker [c] (footnote not shown)): 4.47^[c]

Cc1cccc(C(=NOCCCON=C(c2cccc(C)n2)C2CC2)C2CC2)n1 (mixture of isomers) [Compound 167]
logP [1]: 2.85^[a]

CCC(=NOCCCON=C(CC)c1ccc(C)c(C)n1)c1ccc(C)c(C)n1 (mixture of isomers) [Compound 236]
logP [1]: 3.80^[a]

C=C(CON=C(CCC)c1cccc(C)n1)CON=C(CCC)c1cccc(C)n1 (mixture of isomers) [Compound 240]
logP [1]: 6.27^[a]

CC(=NOCC(C)(C)CON=C(C)c1cccc(C)n1)c1cccc(C)n1 (mixture of isomers) [Compound 250]
logP [2]: 4.74^[b]

CCCC(=NOCCCON=C(CCC)c1ccc(C)c(C)n1)c1ccc(C)c(C)n1 (mixture of isomers) [Compound 260]
logP (value marked [a]): 5.22^[a]

Cc1cccc(C(=NOCC(C)(C)CON=C(c2cccc(C)n2)C2CC2)C2CC2)n1 (mixture of isomers) [Compound 281]
logP (value marked [a]): 4.04^[a]

C=C(CON=C(c1cccc(C)n1)C1CC1)CON=C(c1cccc(C)n1)C1CC1 (mixture of isomers) [Compound 312]
logP (value marked [a]): 3.10^[a]

CCC(=NOCC1(CON=C(CC)c2cc(C)cc(C)n2)CC1)c1cc(C)cc(C)n1 (mixture of isomers) [Compound 570]
logP (method marked [a] in Table 1): 3.22^[a]

CCC(=NOCC(C)(C)CON=C(CC)c1cc(C)cc(C)n1)c1cc(C)cc(C)n1 (mixture of isomers) [Compound 571]
logP (method marked [a] in Table 1): 3.92^[a]

CCC(=NOCC(C)CON=C(CC)c1cc(C)cc(C)n1)c1cc(C)cc(C)n1 (mixture of isomers) [Compound 572]
logP (method marked [a] in Table 1): 3.23^[a]

Cc1cccc(C(=NOCC(C)CON=C(c2ccccc2)c2cccc(C)n2)c2ccccc2)n1 (mixture of isomers) [Compound 659]
logP (method marked [a] in Table 1): 4.09^[a]

C=C(CON=Cc1cc(C(F)(F)F)cc(C)n1)CON=C(C)c1cccc(C)n1 (mixture of isomers) [Compound 671]
logP (method marked [b] in Table 1): 4.61^[b]

CON=C(c1ccccc1)c1cccc(C(C)=NOCC(C)CON=C(C)c2cccc(C)n2)n1 (mixture of isomers) [Compound 693]
logP (method marked [b] in Table 1): 6.22^[b]

CC(=NOC(C)C(C)C(C)ON=C(C)c1cccc(C)n1)c1cccc(C)n1 (mixture of isomers) [Compound 743]
logP (method marked [b] in Table 1): 4.90^[b]

CC(=NOC(C)C(C)C(C)ON=C(C)c1cc(C)cc(C)n1)c1cc(C)cc(C)n1 (mixture of isomers) [Compound 790]
logP (value marked [a]): 3.60^[a]
logP (value marked [b]): 4.44^[b]

CC(=NOCC(C)(C)CON=C(c1ccccc1)c1cccc(C)n1)c1cccc(C)n1 (mixture of isomers) [Compound 880]
logP (value marked [b]): 4.72^[b]
logP (value marked [c]): 5.37^[c]

Cc1cccnc1C(=NOCCCON=C(c1ncccc1C)C(C)C)C(C)C (mixture of isomers) [compound 92]
logP [1]: 4.13^[a]

Cc1cccnc1C(=NOCC(C)CON=C(c1ncccc1C)C(C)C)C(C)C (mixture of isomers) [compound 103]
logP [1]: 4.28^[a]

CC(=NOCC(C)CON=C(C)c1cccnc1Cl)c1cccnc1Cl (mixture of isomers) [compound 107]
logP [1]: 3.87^[a]

CCCC(=NOCC(C)CON=C(CCC)c1ncccc1C)c1ncccc1C (mixture of isomers) [compound 111]
logP [1]: 4.73^[a]

CC(=NOCC(C)CON=C(C)c1sc(C)nc1C)c1sc(C)nc1C (mixture of isomers) [compound 121]
logP [1]: 4.02^[a]

CC(=NOCC(C)CON=C(C)c1nc(C)cs1)c1nc(C)cs1 (mixture of isomers) [compound 122]
logP [1]: 4.98^[a]

C=C(CON=C(C)c1cccc(C)n1)CON=C(CC(C)C)c1ncccc1C (mixture of isomers) [compound 154]
logP [2]: 5.08^[b]

CCC(=NOCCON=C(CC)c1cccc(C)n1)c1cccc(C)n1 (mixture of isomers) [compound 222]
logP [1]: 3.77^[a]

CCC(=NOCCCCON=C(CC)c1cccc(C)n1)c1cccc(C)n1 (mixture of isomers) [compound 223]
logP [1]: 4.86^[a]

CC(=NOCC(C)CON=C(C)c1csc(Cl)n1)c1csc(Cl)n1 (mixture of isomers) [compound 231]
logP [1]: 5.16^[a]

CC(=NOCCCON=C(C)c1csc(Cl)n1)c1csc(Cl)n1 (mixture of isomers) [compound 232]
logP [1]: 4.69^[a]

CC(=NOCC(C)CON=C(C)c1ccc(C)nc1)c1ccc(C)nc1 (mixture of isomers) [compound 233]
logP [1]: 1.50^[a]

CC(=NOCC(C)CON=C(C)c1cccnc1C)c1cccnc1C (mixture of isomers) [compound 234]
logP [1]: 1.22^[a]

Cc1ccc(C(=NOCCCON=C(c2ccc(C)c(C)n2)C(C)C)C(C)C)nc1C (mixture of isomers) [compound 237]
logP [1]: 4.00^[a]

Cc1ccc(C(=NOCCCON=C(c2ccc(C)c(C)n2)C(C)C)C(C)C)nc1C (mixture of isomers) [compound 238]
logP [1]: 4.94^[a]

CC(=NOCC(C)CON=C(C)c1cc(C)n(C)n1)c1cc(C)n(C)n1 (mixture of isomers) [compound 261]
logP (value marked [a]): 3.09^[a]

CCC(=NOCC(C)CON=C(CC)c1cccc(CC)n1)c1cccc(CC)n1 (mixture of isomers) [compound 263]
logP (value marked [b]): 6.33^[b]

Cc1cccc(C(=NOCCON=C(c2cccc(C)n2)C(C)C)C(C)C)n1 (mixture of isomers) [compound 288]
logP (value marked [a]): 4.03^[a]

Cc1ccc(C(=NOCC(C)CON=C(c2ccc(C)c(C)n2)C(C)C)C(C)C)nc1C (mixture of isomers) [compound 299]
logP (value marked [a]): 4.82^[a]

CC(=NOCC(C)CON=C(C)c1ccc[nH]1)c1ccc[nH]1 (mixture of isomers) [compound 566]
logP (method marked [b] in Table 1): 3.47^[b]
logP (method marked [c] in Table 1): 3.62^[c]

CC(=NOCC(C)CON=C(C)c1nc2ccccc2[nH]1)c1nc2ccccc2[nH]1 (mixture of isomers) [compound 584]
logP (method marked [a] in Table 1): 2.05^[a]

CC(=NOCC(C)CON=C(C)c1ccc(C)o1)c1ccc(C)o1 (mixture of isomers) [compound 585]
logP (method marked [a] in Table 1): 4.70^[a]

Cc1cccc(C(=NOCC2(CON=C(c3cccc(C)n3)C3CC3)CC(C(C)(C)C)=NO2)C2CC2)n1 (mixture of isomers) [compound 651]
logP (method marked [a] in Table 1): 3.98^[a]

Cc1cccc(C(=NOCCCON=C(c2ccccc2)c2cccc(C)n2)c2ccccc2)n1 (mixture of isomers) [compound 656]
logP (method marked [a] in Table 1): 3.68^[a]

Cc1cccc(C(=NOCC(C)(C)CON=C(c2ccccc2)c2cccc(C)n2)c2ccccc2)n1 (mixture of isomers) [compound 660]
logP (method marked [a] in Table 1): 4.09^[a]

CC(=NOC1CCC(ON=C(C)c2cc(C)cc(C)n2)C1)c1cc(C)cc(C)n1 (mixture of isomers) [compound 796]
logP (value marked [a]): 2.55^[a]

CC(=NOC1CCC(ON=C(C)c2cccc(C)n2)C1)c1cccc(C)n1 (mixture of isomers) [compound 797]
logP (value marked [a]): 4.60^[a]

CC(=NOC1CCCC(ON=C(C)c2cccc(C)n2)C1)c1cccc(C)n1 (mixture of isomers) [compound 801]
logP (value marked [a]): 4.96^[a]

CC(=NOC1CCC(ON=C(C)c2cccc(C3CC3)n2)C1)c1cccc(C2CC2)n1 (mixture of isomers) [compound 813]
logP (value marked [a]): 7.36^[a]

CC(=NOCC(C)CON=C(C)c1ccc(C)c(C)n1)c1cc(C)cc(C)n1 (racemic) [Compound 694]
logP (method marked [b] in Table 1): 2.63^[b]
logP (method marked [c] in Table 1): 6.17^[c]

C/C(=N\OCC(C)CON)c1cccc(-c2cccc(C)n2)n1 (racemic) [XII-5]
logP [3]: 1.35^[b]
logP [4]: 3.36^[c]

C/C(=N\OCC(C)CON)c1ccc(C)c(C)n1 (racemic) [XII-7]
logP [5]: 0.37^[a]
logP [3]: 0.37^[b]
logP [4]: 2.49^[c]

C/C(=N\OCC(C)CON)c1cc(C)cc(C)n1 (racemic) [XII-9]
logP [5]: 0.49^[a]
logP [3]: 0.49^[b]

C/C(=N\OCC(C)CON)c1cccc(C)n1 (racemic) [XII-11]
logP [5]: 0.7^[a]
logP [3]: 0.7^[b]
logP [4]: 2.15^[c]

C/C(=N\OCC(C)CON)c1cc(C(F)(F)F)cc(C)n1 (racemic) [XII-15]
logP [5]: 2.33^[a]
logP [3]: 2.33^[b]
logP [4]: 3.38^[c]

CC(=NOCC1(CON=C(C)c2cccc(C)n2)CCO1)c1ccccn1 (racemic) [compound 26]
logP [1]: 2.29^[a]
logP [2]: 2.43^[b]

CC(=NOCC1OC1CON=C(C)c1cccc(C)n1)c1cccc(C)n1 (racemic) [compound 286]
logP (value marked [b]): 2.08^[b]

CCC1=NOC(CON=C(CC)c2ccc(C)cn2)(CON=C(CC)c2cccc(C)n2)C1 (racemic) [compound 607]
logP (method marked [b] in Table 1): 4.04^[b]

CC(=NOCC(C)CON=C(C)c1cc(Cl)cc(C)n1)c1cc(C)cc(C)n1 (racemic) [compound 878]
logP (value marked [a]): 5,69^[a]
logP (value marked [b]): 5.69^[b]
logP (value marked [c]): 7.32^[c]

C=C(CON=C(C)c1ccccn1)CON=C(C)c1cccc(C)n1 (single isomer, unassigned) [Compound 17]
logP [2]: 3.10^[b] (isomer A)

Cc1cccc(C(=NOCCCON=C(c2cccc(C)n2)C(C)C)C(C)C)n1 (single isomer, unassigned) [Compound 88]
logP [1]: 5.52^[a] (isomer B)

Cc1cccnc1C(Cc1ccccc1)=NOCCCON=C(Cc1ccccc1)c1ncccc1C (single isomer, unassigned) [Compound 97]
logP [1]: 4.89^[a] (isomer A)

Cc1cccc(C(CC(C)C)=NOCCCON=C(CC(C)C)c2cccc(C)n2)n1 (single isomer, unassigned) [Compound 115]
logP [1]: 7.08^[a] (isomer B)
